The data set is described as follows: Tolerability of high, cumulative doses in asthmatic patients on maintenance treatment with the combination (double blind clinical comparison study). Conditions: 10 puffs cumulative dose in addition to morning maintenance dose (2 puffs), assessed over 12 hours after dosing, vs placebo / comparator.

SMILES strings stand for the structures.

Method: A study is performed to evaluate the tolerability of high, cumulative doses of the combination formoterol/beclometasone dipropionate or formoterol compared to a placebo when administered in asthmatic patients on regular treatment with the combination at the maximum recommended daily dose (6 microgram of formoterol/100 microgram beclometasone dipropionate, 2 puffs bid.: corresponding to a total daily dose of 24 microgram of formoterol and of 400 microgram of beclometasone dipropionate). The study is a double blind clinical comparison study of ten puffs of the pressurized metered dose inhaler solution formulation of the combination of Example 1 (formoterol 6 microgram+beclometasone dipropionate 100 microgram) or formoterol (6 microgram) or placebo during the maintenance treatment of asthma with 2 puffs bid. of the combination formoterol/beclometasone dipropionate of Example 1.
Cumulative doses (10 puffs) are administered on 3 separated days in addition to the morning dose maintenance (2 puffs). The primary endpoint is serum potassium, assessed over a 12 hours period after the cumulative doses.

As for `COc1ccc(CC(C)NCC(O)c2ccc(O)c(NC=O)c2)cc1` (racemic) [Formoterol, (±) N-[2-hydroxy-5-(1-hydroxy-2-((2-(4-methoxyphenyl)-1-methylethyl)amino)ethyl)phenyl]formamide], the serum potassium level entry was “significantly greater decrease in serum potassium level than the combination or placebo”. Under “listed as formoterol”, the serum potassium level entry is given as “significantly greater decrease in serum potassium level than the either the combination or the placebo”.

(Values after patent US20080261932A1, “METHODS AND COMPOSITIONS FOR THE PREVENTION AND/OR TREATMENT OF AN EX[…] ASTHMA” (Chiesi Farmaceutici S.p.A., priority 2007, published 2008).)
